The subject of this test is MV-4-11 cells. Briefly: AML cell viability assay (RealTime-Glo). In kind it is cell-based. The settings on record: Homo sapiens, read-out: Cell viability classification.
Where [1] appears, read: MV4-11, IC50 class, MV-4-11 cells, RealTime-Glo after 44 hrs of treatment (TABLE 5).
The mark [2] stands for this setting: MV4-11, IC50 class, MV-4-11 cells, RealTime-Glo after 44 hrs of treatment (TABLE 4).
Where [3] appears, read: MV4-11, IC50 class, MV-4-11 cells, RealTime-Glo after 44 hrs of treatment (TABLE 1).
[4] abbreviates: MV4-11, IC50 class, MV-4-11 cells, RealTime-Glo after 44 hrs of treatment (TABLE 2).

Molecules are shown by their SMILES. Structures can show the parent of a compound that is named as a salt. Where two headings read alike, the source gives them in different places.

Experimental findings from US20250188069A1, “COMPOUNDS AND METHODS FOR DEGRADING CASEIN KINASE 1 ALPHA” (PIN THERAPEUTICS, INC., priority 2022, published 2025) are described below.

Turning to `CN1CCC(CN(CCC2CC2)c2cccc3c2CN(C2CCC(=O)NC2=O)C3=O)CC1` (centres unmarked) [Compound 714, 3-(4-((2-cyclopropylethyl)((1-methylpiperidin-4-yl)methyl)amino)-1-oxoisoindolin-2-yl)piperidine-2,6-dione], under setting [1], the IC50 was more than 1000 nM. Same read-out and setting: in the case of `O=C1CCC(N2Cc3c(cccc3N(CCC3CC3)[C@H]3CC[C@H](CNCCC(F)(F)F)CC3)C2=O)C(=O)N1` (some centres unmarked) [Compound 708, 3-(4-((2-cyclopropylethyl)((1r,4r)-4-(((3,3,3-trifluoropropyl)amino)methyl)cyclohexyl)amino)-1-oxoisoindolin-2-yl)piperidine-2,6-dione] it was 100 to 1000 nM; in that of `CN(CCC(F)F)[C@H]1CC[C@@H](N(CCC2CC2)c2cccc3c2CN(C2CCC(=O)NC2=O)C3=O)CC1` (some centres unmarked) [Compound 683A, 3-(4-((2-cyclopropylethyl)((1s,4s)-4-((3,3-difluoropropyl)(methyl)amino)cyclohexyl)amino)-1-oxoisoindolin-2-yl)piperidine-2,6-dione bis(2,2,2-trifluoroacetate)], 100 to 1000 nM.

As for `O=C1CCC(N2Cc3c(cccc3N(CCC3CC3)[C@H]3CC[C@H](NCC4(C(F)(F)F)CCC4)CC3)C2=O)C(=O)N1` (some centres unmarked) [Compound 614, 3-{4-[(2-cyclopropylethyl)[(1r,4r)-4-({[1-(trifluoromethyl)cyclobutyl]methyl}amino)cyclohexyl]amino]-1-oxo-3H-isoindol-2-yl}piperidine-2,6-dione; trifluoro acetate], the IC50 under setting [2] lay within 100 to 1000 nM. As for `CCCCCN(c1cccc2c1CN(C1CCC(=O)NC1=O)C2=O)[C@H]1CCC[C@@H](N)C1` (stereo partly drawn) [Compound 328, 3-(4-(((1S,3R)-3-aminocyclohexyl)(pentyl)amino)-1-oxoisoindolin-2-yl)piperidine-2,6-dione], the IC50 under setting [3] is less than 100 nM. On to `O=C1CCC(N2Cc3c(cccc3N(CCC3CC3)[C@H]3CC[C@@H](Nc4ccccn4)CC3)C2=O)C(=O)N1` (some centres unmarked) [Compound 575, 3-{4-[(2-cyclopropylethyl)[(1s,4s)-4-(pyridin-2-ylamino)cyclohexyl]amino]-1-oxo-3H-isoindol-2-yl}piperidine-2,6-dione], for which the IC50 (MV4-11, 44 h) was in the range of 100 to 1000 nM. `N[C@H]1CC[C@@H](N(CCC2CC2)c2cccc3c2CN(C2CCC(=O)NC2=O)C3=O)C1` (stereo partly drawn) [Compound 352, 3-(4-(((1R,3S)-3-aminocyclopentyl)(2-cyclopropylethyl)amino)-1-oxoisoindolin-2-yl)piperidine-2,6-dione]: under setting [3], the IC50 is less than 100 nM. Consider `C[C@H]1CC[C@@H](N(CCCCN)c2cccc3c2CN(C2CCC(=O)NC2=O)C3=O)CC1` (some centres unmarked) [Compound 108, 3-(4-((4-aminobutyl)((1s,4s)-4-methylcyclohexyl)amino)-1-oxoisoindolin-2-yl)piperidine-2,6-dione hydrochloride], for which, under setting [4], the IC50 was less than 100 nM. Regarding `N[C@H]1CC[C@@H](N(CCCC2CCOCC2)c2cccc3c2CN(C2CCC(=O)NC2=O)C3=O)C1` (stereo partly drawn) [Compound 353, 3-(4-(((1R,3S)-3-aminocyclopentyl)(3-(tetrahydro-2H-pyran-4-yl)propyl)amino)-1-oxoisoindolin-2-yl)piperidine-2,6-dione], the IC50 under setting [3] was in the range of 100 to 1000 nM. `CC(N[C@H]1CC[C@H](N(CCC2CC2)c2cccc3c2CN(C2CCC(=O)NC2=O)C3=O)CC1)C(F)F` (some centres unmarked) [Compound 583, 3-{4-[(2-cyclopropylethyl)[(1r,4r)-4-[(1,1-difluoropropan-2-yl)amino]cyclohexyl]amino]-1-oxo-3H-isoindol-2-yl}piperidine-2,6-dione]: the IC50 under setting [2] was 100 to 1000 nM. In the case of `O=C1CCC(N2Cc3c(cccc3N(CCC3CC3)[C@H]3CC[C@H](N4CC[C@@H](C(F)(F)F)C4)CC3)C2=O)C(=O)N1` (stereo partly drawn) [Compound 713, 3-(4-((2-cyclopropylethyl)((1R,4r)-4-((R)-3-(trifluoromethyl)pyrrolidin-1-yl)cyclohexyl)amino)-1-oxoisoindolin-2-yl)piperidine-2,6-dione bis(2,2,2-trifluoroacetate)], the IC50 under setting [1] lay in the range of 100 to 1000 nM. Turning to `O=C1CCC(N2Cc3c(cccc3N(CCCCC(F)(F)F)[C@H]3CC[C@@H](NCC4(C(F)(F)F)CC4)CC3)C2=O)C(=O)N1` (some centres unmarked) [Compound 628A, 3-(1-oxo-4-{[(1s,4s)-4-({[1-(trifluoromethyl)cyclopropyl]methyl}amino)cyclohexyl](5,5,5-trifluoropentyl)amino}-3H-isoindol-2-yl)piperidine-2,6-dione; trifluoroacetate], the IC50 under setting [2] was more than 1000 nM. In the case of `O=C1CCC(N2Cc3c(N(CCC4CC4)[C@H]4CC[C@@H](NCC5(C(F)(F)F)CC5)CC4)ccc(F)c3C2=O)C(=O)N1` (some centres unmarked) [Compound 627A, 3-{4-[(2-cyclopropylethyl)[(1s,4s)-4-({[1-(trifluoromethyl)cyclopropyl]methyl}amino)cyclohexyl]amino]-7-fluoro-1-oxo-3H-isoindol-2-yl}piperidine-2,6-dione], under setting [2], the IC50 is more than 1000 nM. As to `CNC(=O)[C@H]1CC[C@@H](N(CCCC2CCOCC2)c2cccc3c2CN(C2CCC(=O)NC2=O)C3=O)C1` (stereo partly drawn) [Compound 362, (1S,3R)-3-((2-(2,6-dioxopiperidin-3-yl)-1-oxoisoindolin-4-yl)(3-(tetrahydro-2H-pyran-4-yl)propyl)amino)-N-methylcyclopentane-1-carboxamide], the IC50 under setting [3] lay in the range of 100 to 1000 nM. The same measure, in the same setting: in the case of `O=C1CCC(N2Cc3c(cccc3N(CCC3CC3)[C@@H]3CC[C@H](NCC4CC4)C3)C2=O)C(=O)N1` (stereo partly drawn) [Compound 355, 3-(4-((2-cyclopropylethyl)((1R,3S)-3-((cyclopropylmethyl)amino)cyclopenty 1)amino)-1-oxoisoindolin-2-yl)piperidine-2,6-dione] it was less than 100 nM.

For `O=C1CCC(N2Cc3c(cccc3N(CCC3CC3)[C@H]3CC[C@@H](CNCCC(F)(F)F)CC3)C2=O)C(=O)N1` (some centres unmarked) [Compound 708A, 3-(4-((2-cyclopropylethyl)((1s,4s)-4-(((3,3,3-trifluoropropyl)amino)methyl)cyclohexyl)amino)-1-oxoisoindolin-2-yl)piperidine-2,6-dione], the IC50 under setting [1] was less than 100 nM. Still for that read-out and setting: in the case of `O=C1CCC(N2Cc3c(cccc3N(CC3CCC3)[C@H]3CC[C@H](NCC4(C(F)(F)F)CC4)CC3)C2=O)C(=O)N1` (some centres unmarked) [Compound 654, 3-(4-((cyclobutylmethyl)((1r,4r)-4-(((1-(trifluoromethyl)cyclopropyl)methyl)amino)cyclohexyl)amino)-1-oxoisoindolin-2-yl)piperidine-2,6-dione] it was 100 to 1000 nM.

In the case of `N[C@H]1CO[C@H]2[C@@H]1OC[C@@H]2N(CCC1CC1)c1cccc2c1CN(C1CCC(=O)NC1=O)C2=O` (stereo partly drawn) [Compound 550, 3-(4-{[(3S,3aR,6S,6aR)-6-amino-hexahydrofuro[3,2-b]furan-3-yl](2-cyclopropylethyl)amino}-1-oxo-3H-isoindol-2-yl)piperidine-2,6-dione], the IC50 under setting [2] was 100 to 1000 nM. For the molecule `CCCCCN(c1cccc2c1CN(C1CCC(=O)NC1=O)C2=O)[C@H]1CCC[C@H](N)C1` (stereo partly drawn) [Compound 327, 3-(4-(((1S,3S)-3-aminocyclohexyl)(pentyl)amino)-1-oxoisoindolin-2-yl)piperidine-2,6-dione], under setting [3], the IC50 was less than 100 nM. With `O=C1CCC(N2Cc3c(cccc3N(CCC3CC3)[C@H]3CC[C@@H](NCC4(F)CCC4)CC3)C2=O)C(=O)N1` (some centres unmarked) [Compound 613A, 3-{4-[(2-cyclopropylethyl)[(1s,4s)-4-{[(1-fluorocyclobutyl)methyl]amino}cyclohexyl]amino]-1-oxo-3H-isoindol-2-yl}piperidine-2,6-dione], the IC50 under setting [2] is 100 to 1000 nM. Same read-out and setting: then `O=C1CCC(N2Cc3c(cccc3N(CCC3CC3)[C@H]3CC[C@@H](NCC4(F)COC4)CC3)C2=O)C(=O)N1` (some centres unmarked) [Compound 616A, 3-{4-[(2-cyclopropylethyl)[(1s,4s)-4-{[(3-fluorooxetan-3-yl)methyl]amino}cyclohexyl]amino]-1-oxo-3H-isoindol-2-yl}piperidine-2,6-dione; trifluoroacetate], with 100 to 1000 nM. On to `CCCCCN(C[C@H]1CC[C@H](N)CC1)c1cccc2c1CN(C1CCC(=O)NC1=O)C2=O` (some centres unmarked) [Compound 92, 3-(4-((((1r,4r)-4-aminocyclohexyl)methyl)(pentyl)amino)-1-oxoisoindolin-2-yl)piperidine-2,6-dione, HCl], for which the IC50 under setting [4] is less than 100 nM. Take `O=C1CCC(N2Cc3c(cccc3N(CCC3CC3)[C@H]3CC[C@@H](c4nnc[nH]4)CC3)C2=O)C(=O)N1` (some centres unmarked) [Compound 573, 3-{4-[(2-cyclopropylethyl)[(1s,4s)-4-(4H-1,2,4-triazol-3-yl)cyclohexyl]amino]-1-oxo-3H-isoindol-2-yl}piperidine-2,6-dione; formate]: the IC50 under setting [2] was less than 100 nM. `O=C1CCC(N2Cc3c(cccc3N(CCC3CC3)[C@H]3CC[C@H](NCC(=O)N4CCC(F)(F)CC4)CC3)C2=O)C(=O)N1` (some centres unmarked) [Compound 561, 3-{4-[(2-cyclopropylethyl)[(1r,4r)-4-{[2-(4,4-difluoropiperidin-1-yl)-2-oxoethyl]amino}cyclohexyl]amino]-1-oxo-3H-isoindol-2-yl}piperidine-2,6-dione]: the IC50 under setting [2] is less than 100 nM. In the case of `N[C@H]1CC[C@H](N(CCCC2CCOC2)c2cccc3c2CN(C2CCC(=O)NC2=O)C3=O)CC1` (some centres unmarked) [Compound 345, 3-(4-(((1r,4r)-4-aminocyclohexyl)(3-(tetrahydrofuran-3-yl)propyl)amino)-1-oxoisoindolin-2-yl)piperidine-2,6-dione], under setting [3], the IC50 lay within 100 to 1000 nM. As to `O=C1CCC(N2Cc3c(cccc3N(CCC3CC3)[C@H]3CC[C@H](N4CCC5(C4)CC5(F)F)CC3)C2=O)C(=O)N1` (some centres unmarked) [Compound 711, 3-(4-((2-cyclopropylethyl)((1r,4r)-4-(1,1-difluoro-5-azaspiro[2.4]heptan-5-yl)cyclohexyl)amino)-1-oxoisoindolin-2-yl)piperidine-2,6-dione 2,2,2-trifluoroacetate], the IC50 under setting [1] lay within 100 to 1000 nM.
